# Laboratory results published in patent US10053443B2, “2-phenylbenzofuran derivatives, method for preparing the same and use of the same for treating inflammatory disease” (KOREA RESEARCH INSTITUTE OF BIOSCIENCE AND BIOTECHNOLOGY, priority 2014, dated 2018).
# Tests used:
# [1] = test system: interleukin-6 (IL-6) generation; test: Inhibition of interleukin-6 (IL-6) generation in LPS-treated Raw 264.7 cells (ELISA); type: cell-based, mouse; details: Mus musculus, RAW264.7; Raw 264.7, LPS treated; read-out: Grades of IC50 on IL-6 generation
# Description: Raw 264.7 cells were distributed by the same manner as described in Experimental Example <2-1>, and IL-6 included in the supernatant treated with each sample at different concentrations was measured by enzyme-linked immunosorbent assay (IL-6 ELISA kit, BD Bioscience, San Diego, Calif.).
# Particularly, 10-fold diluted supernatant was distributed in a 96-well plate on which IL-6 antibody was attached, followed by adhesion for 2 hours. The supernatant remaining after the adhesion was washed with a washing buffer. The detection antibody and HRP were adhered on the washed plate for 1 hour. The remaining antibody was washed. Color development was induced by using TMB substrate. The reaction was terminated with sulfuric acid solution. Then, OD450 was measured. IL-6 in the supernatant was quantified by using the standard curve made with the standard IL-6 included in the kit. IL-6 suppression rate was calculated by measuring the same concentration that could inhibit IL-6 generation up to 50% in the LPS treated group and the results are shown in Table 8.
# [2] = test system: inflammatory cells (eosinophils); test: Number of inflammatory cells in bronchoalveolar lavage fluid (Diff-Quick); type: in vivo, mouse; details: OVA asthma Balb/c mice, 5 or 15 mg/kg PO, FIG. 5
# Description: (§1) 6 week old Balb/c female mice in the average weight of 20 g were adapted for 1 week. 2 mg of aluminum hydroxide (A8222, Sigma, St. Louis, Mo.) and 20 μg of ovalbumin (A5503, sigma, St. Louis, Mo.) were suspended in phosphate buffer (pH 7.4). Each mouse was administered with 200 μl of the phosphate buffer suspension via intraperitoneal injection for sensitization at 2 weeks intervals. The mouse was forced to inhale 1% ovalbumin (OVA) through ultrasonic atomizer for 30 minutes a day for 3 days after the first intraperitoneal injection of ovalbumin. 24 hours after the antigen administration, airway hyperreactivity was measured. 48 hours later, a lethal dose of pentobarbital (Entobar, Hanlim Pharma. Co., Ltd.) was administered to the mouse. The bronchus was opened and the alveoli were washed with 1.4 ml of saline. Then, the test samples were obtained. The normal control (NC) was not administered with ovalbumin nor inhaled. The asthma induced group (OVA) was administered with ovalbumin and inhaled to induce bronchial asthma. The comparative control was orally administered with dexamethasone (2 mg/kg, PO) one hour before the inhalation (DEX). […]
# After performing the experiment of Experimental Example <3-1> above, the number of inflammatory cells in bronchoalveolar lavage fluid was measured by Diff-Quick staining.
# interleukin 13 = test: Interleukin 13 in bronchoalveolar lavage fluid of asthma mice (ELISA); type: in vivo, mouse; details: OVA asthma Balb/c mice, 5 or 15 mg/kg PO, FIG. 3
# Description: as §1, with “asthma.” for “asthma. The comparative control was orally administered with dexamethasone (2 mg/kg, PO) one hour before the inhalation (DEX).”
# After performing the experiment of Experimental Example <3-1> above, Th2 cytokine (interleukin 5, 13) in bronchoalveolar was measured by sandwich type enzyme immunoassay. […] The content of each cytokine was measured using the kit according to the manufacturer's instruction.
smiles,measurement,setting,value
"COc1cc(CCCO)cc2cc(-c3ccc(C)cc3)oc12 [Example 4, 3-(7-methoxy-2-p-tolylbenzofuran-5-yl)propane-1-ol]",IC50,[1],≤ 10 µM
same,infiltration of inflammatory cells (eosinophils) in bronchoalveolar lavage fluid,[2],efficiently reduce
same,content of interleukin 13 in bronchoalveolar lavage fluid,interleukin 13,significantly reduced
